pIC50: −log10 of the molar value. Residues, ends and D or L forms follow the SMILES beside them.
Experiments:
[1] = tested on: human breast malignant carcinoma cell line (MT-1); assay type: cell-based; conditions: 24 h
Experimental: The cytotoxic effects of the peptides on different human tumour cells were measured using the MTT colorimetric assay (Mosmann, 1983). MIT (3-(4-5-dimethylthiazol-2-yl)-2,5-diphenyl tetrazolium bromide) is a soluble tetrazolium salt yielding a yellow solution when prepared in media or salt solutions lacking phenol red. Dissolved MIT is converted to an insoluble purple formazan by cleavage of the tetrazolium ring by dehydrogenase enzymes. This water insoluble formazan can be solubilized using isopropanol or other solvents and the dissolved material is measured spectrophotometrically. The absorbance was measured as a function of concentration of converted dye. […]
The tumour cell lines FemX, HT-29, MT-1 were maintained in RPMI-1640 medium supplemented with 10% heat inactivated FBS and 1% L-glutamine in a humidified atmosphere of 5% CO2 at 37° C. […] Cells to be used in the assay were grown to a minimum of 75% confluency, trypsinated and split to single cell suspension, counted and centrifuged at 1500 rpm for 10 min. […]
The cytotoxicity was measured using the MTT method (Mosmann, 1983), with minor modifications. […] The plate was placed on a shaker for 1 hour at room temperature and read spectrophotometrically at 590 nm in a microtiter plate reader (DTX880 Multimode Detector, Beckman Coulter). […]

[2] = tested on: Salmonella enterica serovar typhimurium (ATCC 14028); assay: Bacterial cell viability, lux luminescence and OD600, with or without LPS; assay type: cell-based; conditions: co-incubation with 2.5 μM Aeromonas salmonicida LPS
From the text: To evaluate the effect of antimicrobial peptides on the viability of bacteria in a fast and reliable manner we used the lux CDABE operon from Photorhabdus luminescens as a reporter system in gram negative test bacteria and the modified luxABCDE operon in S. aureus (Vesterlund et al. 2004). Bacterial bioluminescence is directly dependent on metabolic activity, since reduction equivalents are needed to drive light emission. Any form of interruption of bacterial cell integrity or metabolism will therefore be detected as a reduction in light emission.
For the assay we used S. aureus (RN4220), E. coli K-12 and Salmonella enterica serovar typhimurium (ATCC 14028) transformed with the respective lux-operon containing plasmids (Vesterlund et al. 2004).
For each experiment a fresh colony was picked from Luria-Bertani plates supplemented with 10 μg/ml of erythromycin in case of S. aureus and with 100 μg/ml of ampicillin in case of E. coli and S. enterica serovar Typhimurium. Each colony was suspended in 5 ml of Müller-Hinton medium with appropriate antibiotics. The culture was incubated over night at 37° C. in a shaking incubator. The next morning 0.5 ml of this culture was transferred to 30 ml fresh MH medium in an Erlenmeyer-flask supplemented with the respective antibiotic. The flask was incubated (200 rpm shaking; 37° C.) until an OD600 of 0.5-0.8 was reached. The culture was then diluted to an OD600 of about 0.02-0.03 before transfer to the 96 well opaque plates with optical bottom (Packard ViewPlate) used for the assay.
The synthesized peptides were dissolved in water and aliquots frozen at −18° C. until use. Twofold dilutions of test peptides (final concentrations ranging from 0.31 to 80 μM) were directly prepared in 96 well microtiter plates in a volume of 10 μl in water. 90 μl is of indicator bacteria in MH medium were added directly to the prepared and pre-warmed (30 minutes at 37° C.) plate before starting the measurement in a Victor multiplate reader (Perkin Elmer) at 37° C. Both OD600 and luminescence in counts per second (cps) were followed over 5 hours in measuring intervals of 5 minutes. The plates where shaken before each measurement (20 sec.; 5 mm orbital shaking; 10 sec waiting). The growth curves and light emission curves were drawn and evaluated to determine the MIC for each indicator strain. The MIC was defined as the concentration of test compound causing more than 50% reduction in bioluminescence (cps) or optical density (OD600) after 5 hours, compared to the growth control. Cecropin P1 was used as positive control. The results (table 14a-b) confirm the results obtained in example 2, showing a pronounced antibacterial effect of the longest peptide fragments. […] The partial peptides P17 HC (1-20), both bromated and unbromated, inhibit growth only in higher concentrations.
A second plate with an otherwise similar setup (as described for the luminescence assay in example 3) was prepared, but with addition of Aeromonas salmonicida LPS to the peptide dilutions before pre-warming. The LPS end concentration in each well was approximately 2.5 μM.

| SMILES | pIC50 [1] | MIC, more than 50% reduction in optical density, S. enterica, P + LPS ([2]; OD600, 5 hours) [µM] | MIC, more than 50% reduction in luminescence, S. enterica, P + LPS ([2]; luminescence (cps), 5 hours) [µM] |
| --- | --- | --- | --- |
| CC[C@H](C)[C@H](NC(=O)CNC(=O)[C@H](CO)NC(=O)[C@H](CCCCN)NC(=O)[C@@H](NC(=O)[C@H](C)NC(=O)[C@H](Cc1c[nH]cn1)NC(=O)[C@H](CO)NC(=O)[C@@H](NC(=O)[C@H](CCCCN)NC(=O)[C@H](Cc1c[nH]cn1)NC(=O)[C@H](Cc1ccccc1)NC(=O)[C@@H](NC(=O)[C@H](CCCCN)NC(=O)[C@H](CCCCN)NC(=O)[C@H](Cc1ccccc1)NC(=O)C(Cc1c[nH]c2ccc(Br)cc12)NC(=O)CN)[C@@H](C)O)C(C)C)C(C)C)C(=O)N[C@@H](Cc1c[nH]cn1)C(=O)N[C@@H](C)C(=O)NCC(=O)N[C@@H](CCC(N)=O)C(=O)N[C@@H](CCCNC(=N)N)C(=O)NCC(=O)N[C@@H](CS)C(=O)N[C@@H](CO)C(=O)N[C@@H](C)C(=O)N[C@@H](CC(C)C)C(=O)NCC(=O)N[C@@H](Cc1ccccc1)C(=O)O (stereo partly drawn) [P17 HC-Br] (HELM PEPTIDE1{G.[O=C(C(Cc1c[nH]c2ccc(Br)cc12)N[*:1])[*:2]].F.K.K.T.F.H.K.V.S.H.A.V.K.S.G.I.H.A.G.Q.R.G.C.S.A.L.G.F}$$$$V2.0) | 4.70 | – | – |
| CC[C@H](C)[C@H](NC(=O)CNC(=O)[C@H](CO)NC(=O)[C@H](CCCCN)NC(=O)[C@@H](NC(=O)[C@H](C)NC(=O)[C@H](Cc1c[nH]cn1)NC(=O)[C@H](CO)NC(=O)[C@@H](NC(=O)[C@H](CCCCN)NC(=O)[C@H](Cc1c[nH]cn1)NC(=O)[C@H](Cc1ccccc1)NC(=O)[C@@H](NC(=O)[C@H](CCCCN)NC(=O)[C@H](CCCCN)NC(=O)[C@H](Cc1ccccc1)NC(=O)C(Cc1c[nH]c2ccc(Br)cc12)NC(=O)CN)[C@@H](C)O)C(C)C)C(C)C)C(=O)N[C@@H](Cc1c[nH]cn1)C(=O)N[C@@H](C)C(=O)O (stereo partly drawn) [P17 HC-Br (1-20)] (HELM PEPTIDE1{G.[O=C(C(Cc1c[nH]c2ccc(Br)cc12)N[*:1])[*:2]].F.K.K.T.F.H.K.V.S.H.A.V.K.S.G.I.H.A}$$$$V2.0; N-terminus and C-terminus assumed) | – | 10 | 10 |
